From paper PMC10673369, “Preliminary SAR of Novel Pleuromutilin–Polyamine Conjugates” (Microorganisms, 2023)

Legend:
[1] = tested on: P. aeruginosa ATCC 27853; experiment: Antibiotic enhancement of doxycycline; assay type: cell-based; settings: for Dox/P.a.: concentration required to restore doxycycline activity: doxycycline at 4.5 µM (2 µg/mL); for Dox/P.a.: fold change, ratio between intrinsic MIC of test compound and combination MIC: doxycycline at 4.5 µM
Description: Antibiotic restoring enhancer concentrations were determined using reported protocols (see Supplementary File).
Briefly, restoring enhancer concentrations were determined with an inoculum of 5x10^5 CFU in 200
µL of MHB containing two-fold serial dilutions of each derivative in the presence of doxycycline at 4.5
The lowest concentration of the polyamine
These measurements were independently repeated in triplicate. […]

[2] = tested on: P. aeruginosa PAO1; experiment: Real-time growth inhibition curves, P. aeruginosa; assay type: cell-based; settings: optical density during 18 h culturing
[3] = tested on: MRSA ATCC 43300; experiment: MIC, CO-ADD broth microdilution, MRSA; assay type: cell-based, methicillin-resistant S. aureus; settings: Staphylococcus aureus; MRSA ATCC 43300; mean (n = 2); read-out: MIC MRSA
Description: The susceptibility of bacterial strains S. aureus (ATCC 25923), E. coli (ATCC 25922), and P. aeruginosa (ATCC 27853 or PAO1) to antibiotics and compounds was determined using reported protocols. Additional antimicrobial evaluation against MRSA (ATCC 43300), Klebsiella pneumoniae (ATCC 700603), A. baumannii (ATCC 19606), Candida albicans (ATCC 90028), and Cryptococcus neoformans (ATCC 208821) was undertaken at the Community for Open Antimicrobial Drug Discovery at The University of Queensland (Australia) according to their standard protocols as reported previously. […]
2.3. Antimicrobial Assays
The susceptibility of bacterial strains S. aureus (ATCC 25923), E. coli (ATCC 25922), and P. […]
baumannii (ATCC 19606), Candida albicans (ATCC 90028), and Cryptococcus neoformans (ATCC 208821) was undertaken at the Community for Open Antimicrobial Drug Discovery at The University of Queensland (Australia) according to their standard protocols as reported previously. For antimicrobial assays, the tested strains were cultured in either Luria broth (LB) (In Vitro Technologies, USB75852), nutrient broth (NB) (Becton Dickson, 234000), or MHB at 37 °C overnight. A sample of culture was then diluted 40-fold in fresh MHB and incubated at 37 °C for 1.5−2 h. The compounds were serially diluted 2-fold across the wells of 96-well plates (Corning 3641, non-binding surface), with compound concentrations ranging from 0.015 to 64 µg/ mL, and plated in duplicate. The resultant mid-log phase cultures were diluted to the final concentration of 1 × 10^6 CFU/mL; then, 50 µL was added to each well of the compound-containing plates, giving a final compound concentration range of 0.008 to 32 µg/mL and a cell density of 5 × 10^5 CFU/mL. All plates were then covered and incubated at 37 °C for 18 h. Resazurin was added at 0.001% final concentration to each well and incubated for 2 h before MICs […]
For C. neoformans, resazurin was added at 0.006% final concentration to each well and incubated for a further 3 h before MICs were determined by measuring […]
Colistin and vancomycin were used as positive bacterial inhibitor standards for Gram-negative and Gram-positive bacteria, respectively. Fluconazole was used as a positive fungal inhibitor standard for C. albicans and C. neoformans. The antibiotics were provided in […], with 3 above and 3 below its MIC value, and plated into the first 8 wells of column 23 of the 384-well NBS plates. The quality control (QC) of the assays was determined by the antimicrobial controls and the Z'-factor (using positive and negative controls). Each plate was deemed to fulfil the quality criteria (pass QC) if the Z'- […]
inhibition at their highest concentration, and no growth inhibition at their lowest concentration.
2.4. Determination of the MICs of Antibiotics in the Presence of Synergizing Compounds

| MIC [3] | Dox/P.a.: fold change, ratio between intrinsic MIC of test compound and combination MIC [1] | SMILES | Dox/P.a.: concentration required to restore doxycycline activity [1] | Real-time bacterial growth inhibition [2] |
| --- | --- | --- | --- | --- |
| ≤ 0.18 µM | 1 | C=C[C@]1(C)C[C@@H](OC(=O)CNCCCNCCCCCCCNCCCNCC(=O)O[C@@H]2C[C@@](C)(C=C)[C@@H](O)[C@H](C)[C@]34CCC(=O)[C@H]3[C@@]2(C)[C@H](C)CC4)[C@]2(C)[C@H](C)CC[C@]3(CCC(=O)[C@H]32)[C@@H](C)[C@@H]1O.O=C(O)C(F)(F)F.O=C(O)C(F)(F)F.O=C(O)C(F)(F)F.O=C(O)C(F)(F)F [Compound 9c, N^1,N^1′-(Heptane-1,7-diyl)bis(N^3-(2-(((3aR,4R,5R,7S,8S,9R,9aS,12R)-8-hydroxy-4,7,9,12-tetramethyl-3-oxo-7-vinyldecahydro-4,9a-propanocyclopenta [8]annulen-5-yl)oxy)-2-oxoethyl)propane-1,3-diaminium) 2,2,2-trifluoroacetate] | 141 µM | – |
| 5.57 µM | 1 | C=C[C@]1(C)C[C@@H](OC(=O)CNCCCNCCCCCCCCNCCCNCC(=O)O[C@@H]2C[C@@](C)(C=C)[C@@H](O)[C@H](C)[C@]34CCC(=O)[C@H]3[C@@]2(C)[C@H](C)CC4)[C@]2(C)[C@H](C)CC[C@]3(CCC(=O)[C@H]32)[C@@H](C)[C@@H]1O.O=C(O)C(F)(F)F.O=C(O)C(F)(F)F.O=C(O)C(F)(F)F.O=C(O)C(F)(F)F [Compound 9d, N^1,N^1′-(Octane-1,8-diyl)bis(N^3-(2-(((3aR,4R,5R,7S,8S,9R,9aS,12R)-8-hydroxy-4,7,9,12-tetramethyl-3-oxo-7-vinyldecahydro-4,9a-propanocyclopenta [8]annulen-5-yl)oxy)-2-oxoethyl)propane-1,3-diaminium) 2,2,2-trifluoroacetate] | 139 µM | – |
| ≤ 0.17 µM | 2 | C=C[C@]1(C)C[C@@H](OC(=O)CNCCCNCCCCCCCCCCNCCCNCC(=O)O[C@@H]2C[C@@](C)(C=C)[C@@H](O)[C@H](C)[C@]34CCC(=O)[C@H]3[C@@]2(C)[C@H](C)CC4)[C@]2(C)[C@H](C)CC[C@]3(CCC(=O)[C@H]32)[C@@H](C)[C@@H]1O.O=C(O)C(F)(F)F.O=C(O)C(F)(F)F.O=C(O)C(F)(F)F.O=C(O)C(F)(F)F [Compound 9e, N^1,N^1′-(Decane-1,10-diyl)bis(N^3-(2-(((3aR,4R,5R,7S,8S,9R,9aS,12R)-8-hydroxy-4,7,9,12-tetramethyl-3-oxo-7-vinyldecahydro-4,9a-propanocyclopenta [8]annulen-5-yl)oxy)-2-oxoethyl)propane-1,3-diaminium) 2,2,2-trifluoroacetate] | 34.2 µM | No such inhibition |
| ≤ 0.17 µM | 4 | C=C[C@]1(C)C[C@@H](OC(=O)CNCCCNCCCCCCCCCCCCNCCCNCC(=O)O[C@@H]2C[C@@](C)(C=C)[C@@H](O)[C@H](C)[C@]34CCC(=O)[C@H]3[C@@]2(C)[C@H](C)CC4)[C@]2(C)[C@H](C)CC[C@]3(CCC(=O)[C@H]32)[C@@H](C)[C@@H]1O.O=C(O)C(F)(F)F.O=C(O)C(F)(F)F.O=C(O)C(F)(F)F.O=C(O)C(F)(F)F [Compound 9f, N^1,N^1′-(Dodecane-1,12-diyl)bis(N^3-(2-(((3aR,4R,5R,7S,8S,9R,9aS,12R)-8-hydroxy-4,7,9,12-tetramethyl-3-oxo-7-vinyldecahydro-4,9a-propanocyclopenta [8]annulen-5-yl)oxy)-2-oxoethyl)propane-1,3-diaminium) 2,2,2-trifluoroacetate] | 8.38 µM | – |

The remaining lines, values behind:

| SMILES | MIC [3] | Dox/P.a.: fold change, ratio between intrinsic MIC of test compound and combination MIC [1] | Dox/P.a.: concentration required to restore doxycycline activity [1] | Real-time bacterial growth inhibition [2] |
| --- | --- | --- | --- | --- |
| C=C[C@]1(C)C[C@@H](OC(=O)CSCCN(CC)CC)[C@]2(C)[C@H](C)CC[C@]3(CCC(=O)[C@H]32)[C@@H](C)[C@@H]1O [Compound 2, Tiamulin, reference compound] | ≤ 0.51 µM | – | > 405 µM | No such inhibition |
| C=C[C@]1(C)C[C@@H](OC(=O)CNCCCNCCCCNCCCNCC(=O)O[C@@H]2C[C@@](C)(C=C)[C@@H](O)[C@H](C)[C@]34CCC(=O)[C@H]3[C@@]2(C)[C@H](C)CC4)[C@]2(C)[C@H](C)CC[C@]3(CCC(=O)[C@H]32)[C@@H](C)[C@@H]1O.O=C(O)C(F)(F)F.O=C(O)C(F)(F)F.O=C(O)C(F)(F)F.O=C(O)C(F)(F)F [Compound 9a, N^1,N^1′-(Butane-1,4-diyl)bis(N^3-(2-(((3aR,4R,5R,7S,8S,9R,9aS,12R)-8-hydroxy-4,7,9,12-tetramethyl-3-oxo-7-vinyldecahydro-4,9a-propanocyclopenta [8]annulen-5-yl)oxy)-2-oxoethyl)propane-1,3-diaminium) 2,2,2-trifluoroacetate] | 23.2 µM | 4 | 18.1 µM | – |
| C=C[C@]1(C)C[C@@H](OC(=O)CNCCCNCCCCCCNCCCNCC(=O)O[C@@H]2C[C@@](C)(C=C)[C@@H](O)[C@H](C)[C@]34CCC(=O)[C@H]3[C@@]2(C)[C@H](C)CC4)[C@]2(C)[C@H](C)CC[C@]3(CCC(=O)[C@H]32)[C@@H](C)[C@@H]1O.O=C(O)C(F)(F)F.O=C(O)C(F)(F)F.O=C(O)C(F)(F)F.O=C(O)C(F)(F)F [Compound 9b, N^1,N^1′-(Hexane-1,6-diyl)bis(N^3-(2-(((3aR,4R,5R,7S,8S,9R,9aS,12R)-8-hydroxy-4,7,9,12-tetramethyl-3-oxo-7-vinyldecahydro-4,9a-propanocyclopenta [8]annulen-5-yl)oxy)-2-oxoethyl)propane-1,3-diaminium) 2,2,2-trifluoroacetate] | ≤ 0.18 µM | 4 | 35.5 µM | – |
